Experimental data published in patent US20260217651A1 (priority 2022, published 2026).
Like-named read-outs stand apart in the source and are kept apart here.

Experiments:
SD rats [1] = assay: animal or person; type: in vivo; details: Rattus norvegicus, iv, read-out: Minimal effective analgesic dose(mg/kg)
SD rats [2] = assay: animal or person; type: in vivo, rat; details: iv; for minimal effective dose: Rattus norvegicus, read-out: Minimal effective anesthetic dose(mg/kg); for Onset time / Righting Reflex Duration / Sedation Duration: rat, in vivo

SMILES | minimal effective dose (SD rats [1]) [mg/kg] | minimal effective dose (SD rats [2]) [mg/kg] | Onset time (SD rats [2]) [min] | Righting Reflex Duration (SD rats [2]) [min] | Sedation Duration (SD rats [2]) [min]
CCOC(=O)C1(c2ccccc2)CCN(c2cc(C(C)C)c(O)c([C@H](C)C3CC3)c2)CC1 [Cpd-25] | 5 to 10 | 5 to 10 | 1.28 to 2.95 | 3.45 to 6.43 | 17.48 to 23.03
CCOC(=O)N(c1ccccc1)N1CCN(c2cc(C(C)C)c(O)c(C(C)C3CC3)c2)CC1 (centres unmarked) [Cpd-53] | 5 to 10 | < 5 | 0.47 to 1.27 | 2.00 to 37.20 | 27.75 to 167.40
CC(C)OC(=O)C1(c2ccccc2)CCN(c2cc(C(C)C)c(O)c(C(C)C)c2)CC1 [Cpd-26] | 5 to 10 | 5 to 10 | 0.98 to 1.77 | 12.33 to 28.05 | 26.52 to 182.97
CCOC(=O)N(c1ccc(Cl)cc1)N1CCN(c2cc(C(C)C)c(O)c([C@H](C)C3CC3)c2)CC1 [Cpd-73] | 20 to 40 | 10 to 20 | 0.83 to 1.65 | 8.78 to 25.28 | 44.83 to 119.62
CCOC(=O)C1(c2ccc(Cl)cc2Cl)CCN(c2cc(C(C)C)c(O)c(C(C)C)c2)CC1 [Cpd-28] | 20 to 40 | 20 to 40 | 0.73 to 1.02 | 2.97 to 12.00 | 31.98 to 218.72
CCC(=O)N(c1ccccc1)N1CCN(c2cc(C(C)C)c(O)c(C(C)C)c2)CC1 [Cpd-46] | 5 to 10 | 5 to 10 | 1.58 | 2.17 | 12.95
CCOC(=O)C1(c2cccs2)CCN(c2cc(C(C)C)c(O)c(C(C)C)c2)CC1 [Cpd-24] | 5 to 10 | 5 to 10 | 0.85 | 11.60 | 21.70
CCOC(=O)N(c1ccc(Cl)cc1)N1CCN(c2cc(C(C)C)c(O)c(C(C)C)c2)CC1 [Cpd-65] | 10 to 20 | 10 to 20 | 0.92 to 1.17 | 11.30 to 16.67 | 101.42 to 123.97
CCCOc1ccc(N(C(=O)OCC)N2CCN(c3cc(C(C)C)c(O)c(C(C)C)c3)CC2)cc1 [Cpd-99] | 10 to 20 | 10 to 20 | 1.03 to 1.38 | 25.58 to 25.87 | 67.73 to 88.57
CCOC(=O)N(Cc1ccsc1)N1CCN(c2cc(C(C)C)c(O)c(C(C)C)c2)CC1 [Cpd-125] | 10 to 20 | 10 to 20 | 1.22 | 6.87 | 53.93
CCOC(=O)N(Cc1ccc(OC)cc1)N1CCN(c2cc(C(C)C)c(O)c(C(C)C)c2)CC1 [Cpd-124] | 20 to 40 | 20 to 40 | 0.15 to 0.68 | 2.83 to 65.08 | –
CCOC(=O)N(c1ccccc1)N1CCN(c2cc(C(C)C)c(O)c([C@@H](C)C3CC3)c2)CC1 [Cpd-105] | 10 to 20 | 5 to 10 | 0.68 to 1.80 | 0.24 to 22.82 | 50.17 to 52.20
CCC(=O)N(c1ccccc1)C1CCN(c2cc(C(C)C)c(O)c(C(C)C)c2)CC1 [Cpd-1] | < 5 | < 5 | 0.38 to 0.62 | 6.27 to 10.78 | 19.02 to 22.97
CCOC(=O)N(c1cccc(C)c1)N1CCN(c2cc(C(C)C)c(O)c([C@H](C)C3CC3)c2)CC1 [Cpd-70] | 10 to 20 | 10 to 20 | 0.38 to 1.07 | 5.02 to 39.35 | 48.32 to 106.60
CCOC(=O)N(c1cccc(OC)c1)N1CCN(c2cc(C(C)C)c(O)c(C(C)C)c2)CC1 [Cpd-63] | 20 to 40 | 10 to 20 | 0.18 to 0.50 | 6.92 to 33.82 | 50.33 to 193.58
CCOC(=O)N(c1ccc(SC)cc1)N1CCN(c2cc(C(C)C)c(O)c(C(C)C)c2)CC1 [Cpd-97] | 10 to 20 | 5 to 10 | 0.20 to 0.60 | 5.25 to 32.28 | 31.60 to 83.28
COC(=O)N(c1ccccc1)N1CCN(c2cc(C(C)C)c(O)c(C(C)C)c2)CC1 [Cpd-45] | 5 to 10 | 5 to 10 | 0.38 to 0.58 | 9.45 to 21.03 | 21.22 to 30.92
CCOC(=O)N(c1ccc(OC)cc1)N1CCN(c2cc(C(C)C)c(O)c([C@@H](C)C3CC3)c2)CC1 [Cpd-107] | 10 to 20 | 5 to 10 | 0.42 to 1.52 | 0.72 to 34.8 | 34.37 to 73.58
CCOC(=O)C1(c2cccc(OC)c2)CCN(c2cc(C(C)C)c(O)c(C(C)C)c2)CC1 [Cpd-39] | 10 to 20 | 10 to 20 | 0.73 to 1.07 | 7.45 to 24.00 | 34.33 to 39.48
CCOC(=O)N(c1ccc(C)cc1)N1CCN(c2cc(C(C)C)c(O)c(C(C)C)c2)CC1 [Cpd-66] | 20 to 40 | 20 to 40 | 0.22 | 40.40 | 115.20
COc1ccc(C2(C(=O)OC(C)C)CCN(c3cc(C(C)C)c(O)c(C(C)C)c3)CC2)cc1 [Cpd-123] | 20 to 40 | 20 to 40 | 0.77 | 24.08 | 75.50
CCCC(=O)N(c1ccccc1)C1CCN(c2cc(C(C)C)c(O)c(C(C)C)c2)CC1 [Cpd-13] | 5 to 10 | 5 to 10 | 0.35 | 20.27 | 41.57
CCOC(=O)N(c1ccc(OC(C)C)cc1)N1CCN(c2cc(C(C)C)c(O)c(C(C)C)c2)CC1 [Cpd-100] | 20 to 40 | 20 to 40 | 0.37 to 0.95 | 6.65 to 26.68 | 62.20 to 114.60
CCOC(=O)N(c1cccc(Cl)c1)N1CCN(c2cc(C(C)C)c(O)c([C@H](C)C3CC3)c2)CC1 [Cpd-69] | 10 to 20 | 10 to 20 | 0.68 to 2.12 | 1.28 to 74.05 | 19.78 to 160.07
CCOC(=O)N(c1cccc(Cl)c1)N1CCN(c2cc(C(C)C)c(O)c(C(C)C)c2)CC1 [Cpd-61] | 10 to 20 | 10 to 20 | 0.55 to 1.25 | 4.15 to 41.88 | 89.98 to 162.23
CCOC(=O)C1(c2ccccc2)CCN(c2cc(C(C)C)c(O)c(C(C)C)c2)CC1 [Cpd-21] | < 5 | < 5 | 1.35 | 1.32 | 20.10
CCOC(=O)N(c1ccc(OCC(C)C)cc1)N1CCN(c2cc(C(C)C)c(O)c(C(C)C)c2)CC1 [Cpd-104] | 20 to 40 | 20 to 40 | 0.42 | 59.33 | 377.87
